From patent US20230279025A1, “KRAS G12D INHIBITORS” (Mirati Therapeutics, Inc., priority 2020, published 2023)

What was measured:
KRas G12D [1] = molecular target: T1, KRas G12D (Homo sapiens (Human), UniProt P01116, G12D); experiment: KRas G12D Binding Assay (TR-FRET displacement of Cy5 labelled tracer); settings: GDP-loaded KRAS G12D (amino acids 1:169), 60 minute incubation at 22° C.
Protocol: After a 60 minute incubation at 22° C., the reaction was measured using a PerkinElmer EnVision multimode plate reader via TR-FRET dual wavelength detection, and the percent of control (POC) calculated using a ratiometric emission factor. […] The POC values were fit to a 4-parameter logistic curve and the IC50 value was determined as the concentration where the curve crosses 50 POC.
ND stands for “not determined.”
Target sequence in this assay (P01116 other isoform, or with tags, fused parts or gaps G12D): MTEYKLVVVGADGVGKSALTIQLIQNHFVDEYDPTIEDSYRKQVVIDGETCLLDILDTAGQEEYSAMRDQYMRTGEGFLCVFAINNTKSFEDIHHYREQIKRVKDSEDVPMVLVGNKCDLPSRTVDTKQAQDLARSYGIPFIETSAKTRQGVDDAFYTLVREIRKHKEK

KRas G12D [2] = molecular target: T1, KRas G12D; experiment: KRas G12D Surface Plasmon Resonance (SPR) Binding Assay; settings: Biacore T200, immobilized biotinylated KRAS protein, 1:1 binding model
Protocol: Briefly, 1L of 1.05X HBS-Mg buffer (262.5 mM Bioultra Hepes, pH 7.5, 157.5 mM NaCl, 105 mM MgCl2, 0.525 mM TCEP, 0.0305% Brij-35) was prepared and filter sterilized using a 0.22 μm bottle top filter. Approximately 50 mL of 1.05X HBS-Mg buffer was removed and saved for future dilutions. A 50 mL aliquot of DMSO (Sigma Aldrich DMSO Lot. #SHBK2079) was added and continued to stir for 10 minutes, creating the final 1.0X HBS-Mg buffer (250 mM Bioultra Hepes pH 7.5, 150 mM NaCl, 100 mM MgCl2, 0.5 mM TCEP, 0.03% Brij-35).
Biacore T200 instrument was primed using 1.0X HBS-Mg buffer before docking a GE Streptavidin (SA) chip and then primed two additional times prior to beginning the immobilization step. All immobilized protein mixtures were created using 3-5 mg/mL Biotinylated Avidin-tagged KRAS protein using the following immobilization settings: SA chip type, 1 flow cells per cycle, 720 second contact time, and 5 ul/min flow rate. Normalization of the detector was also performed during the immobilization step using the GE BiaNormalize solution.
All compounds were diluted to 10 mM in 100% DMSO prior to being diluted 20X in 1.05X buffer. Another 10X dilution was created using 1.0X buffer prior to performing a series of 3X dilutions to create a compound concentration curve using the following assay settings: 20C analysis temperature, General Settings=10 Hz data collection rate and multi-detection; Assay Steps=all set to LMW kinetics; Cycle Types=LMW kinetics (60 s contact time, 120 s dissociation time, 100 ul/min flow rate, extra wash after injection with 50% DMSO, flow path 1,2,3,4); Flow path detection=2-1, 4-3). Data evaluation was performed using the Biacore T200 Evaluation software and data fit to 1:1 binding model. ND=not determined.
Target sequence in this assay (P01116-2 other isoform, or with tags, fused parts or gaps G12D): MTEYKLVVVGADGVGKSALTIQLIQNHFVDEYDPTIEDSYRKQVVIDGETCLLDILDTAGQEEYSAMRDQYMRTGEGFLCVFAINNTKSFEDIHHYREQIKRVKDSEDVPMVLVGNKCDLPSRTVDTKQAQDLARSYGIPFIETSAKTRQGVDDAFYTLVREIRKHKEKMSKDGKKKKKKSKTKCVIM

| Structure (SMILES) | IC50 (KRas G12D [1]) | Kd (KRas G12D [2]) |
| --- | --- | --- |
| Fc1c(-c2cccc3cccc(Cl)c23)ncc2c(N3C[C@H]4CC[C@@H](C3)N4)nc(OCCc3cn4ccccc4n3)nc12 [Example 92, 4-((1R,5S)-3,8-diazabicyclo[3.2.1]octan-3-yl)-7-(8-chloronaphthalen-1-yl)-8-fluoro-2-(2-(imidazo[1,2-a]pyridin-2-yl)ethoxy)pyrido[4,3-d]pyrimidine] | 1350 nM | 2300 nM |
| COc1nc(N2C[C@H]3CC[C@@H](C2)N3)c2cnc(-c3cc(O)cc4ccccc34)c(F)c2n1 [Example 105, 4-(4-((I R,5S)-3,8-diazabicyclo[3.2.1]octan-3-yl)-8-fluoro-2-methoxypyrido[4,3-d]pyrimidin-7-yl)naphthalen-2-ol] | 867 nM | 2260 nM |
| Fc1c(-c2cccc3cccc(Cl)c23)ncc2c(N3C[C@H]4CC[C@@H](C3)N4)nc(OC3CCc4cn[nH]c4C3)nc12 (stereo partly drawn) [Example 143, 4-((1R,5S)-3,8-diazabicyclo[3.2.1]octan-3-yl)-7-(8-chloronaphthalen-1-yl)-8-fluoro-2-((4,5,6,7-tetrahydro-1H-indazol-6-yl)oxy)pyrido[4,3-d]pyrimidine] | 4560 nM | 14900 nM |
| COc1cccnc1CCOc1nc(N2C[C@H]3CC[C@@H](C2)N3)c2cnc(-c3cc(O)cc4ccccc34)c(F)c2n1 [Example 140, 4-(4-((1R,5S)-3,8-diazabicyclo[3.2.1]octan-3-yl)-8-fluoro-2-(2-(3-methoxypyridin-2-yl)ethoxy)pyrido[4,3-d]pyrimidin-7-yl)naphthalen-2-ol] | – | 5590 nM |
| CC(Oc1nc(N2C[C@H]3CC[C@@H](C2)N3)c2cnc(-c3cc(O)cc4ccccc34)c(F)c2n1)C1CCCN1C (stereo partly drawn) [Example 27, 4-(4-((1R,5S)-3,8-diazabicyclo[3.2.1]octan-3-yl)-8-fluoro-2-(1-(1-methylpyrrolidin-2-yl)ethoxy)pyrido[4,3-d]pyrimidin-7-yl)naphthalen-2-ol] | – | 25.9 nM |
| CCN1CCC[C@H]1COc1nc(N2C[C@H]3CC[C@@H](C2)N3)c2cnc(-c3cc(O)cc4ccccc34)c(F)c2n1 [Example 11, 4-(4-((1R,5S)-3,8-diazabicyclo[3.2.1]octan-3-yl)-2-(((S)-1-ethylpyrrolidin-2-yl)methoxy)-8-fluoropyrido[4,3-d]pyrimidin-7-yl)naphthalen-2-ol] | – | 4.9 nM |
| CN1CCC[C@H]1COc1nc(N2CC3CCC(CO)(C2)N3)c2cnc(-c3cc(O)cc4ccccc34)c(F)c2n1 (stereo partly drawn) [Example 215, 4-(8-fluoro-4-(1-(hydroxymethyl)-3,8-diazabicyclo[3.2.1]octan-3-yl)-2-(((S)-1-methylpyrrolidin-2-yl)methoxy)pyrido[4,3-d]pyrimidin-7-yl)naphthalen-2-ol bis(2,2,2-trifluoroacetate)] | – | 70.4 nM |
| CN1CCC[C@H]1COc1nc(N2CC3CCC(C=O)(C2)N3)c2cnc(-c3cc(O)cc4ccccc34)c(F)c2n1 (stereo partly drawn) [Example 214, 3-(8-fluoro-7-(3-hydroxynaphthalen-1-yl)-2-(((S)-1-methylpyrrolidin-2-yl)methoxy)pyrido[4,3-d]pyrimidin-4-yl)-3,8-diazabicyclo[3.2.1]octane-1-carbaldehyde] | – | 284 nM |
| CN1C[C@H](C(F)(F)F)C[C@H]1COc1nc(N2C[C@H]3CC[C@@H](C2)N3)c2cnc(-c3cc(O)cc4ccccc34)c(F)c2n1 [Example 28, 4-(4-((1R,5S)-3,8-diazabicyclo[3.2.1]octan-3-yl)-8-fluoro-2-(((2S,4R)-1-methyl-4-(trifluoromethyl)pyrrolidin-2-yl)methoxy)pyrido[4,3-d]pyrimidin-7-yl)naphthalen-2-ol] | – | 58.7 nM |
| Oc1cc(-c2ncc3c(N4C[C@H]5CC[C@@H](C4)N5)nc(OC[C@@H]4CCCN4Cc4ccccc4)nc3c2F)c2ccccc2c1 [Example 12, 4-(2-(((S)-1-benzylpyrrolidin-2-yl)methoxy)-4-((1R,5S)-3,8-diazabicyclo[3.2.1]octan-3-yl)-8-fluoropyrido[4,3-d]pyrimidin-7-yl)naphthalen-2-ol] | – | 11 nM |
| CN(C)C(=O)CCOc1nc(N2C[C@H]3CC[C@@H](C2)N3)c2cnc(-c3cc(O)cc4ccccc34)c(F)c2n1 [Example 13, 3-((4-((1R,5S)-3,8-diazabicyclo[3.2.1]octan-3-yl)-8-fluoro-7-(3-hydroxynaphthalen-1-yl)pyrido[4,3-d]pyrimidin-2-yl)oxy)-N,N-dimethylpropanamide] | – | 511 nM |
| Oc1cc(-c2ncc3c(N4C[C@H]5CC[C@@H](C4)N5)nc(OCc4ccccc4F)nc3c2F)c2ccccc2c1 [Example 217, 4-(4-((1R,5S)-3,8-diazabicyclo[3.2.1]octan-3-yl)-8-fluoro-2-((2-fluorobenzyl)oxy)pyrido[4,3-d]pyrimidin-7-yl)naphthalen-2-ol] | – | 2980 nM |
| CN1CCC[C@H]1CCOc1nc(N2C[C@H]3CC[C@@H](C2)N3)c2cnc(-c3cc(O)cc4ccccc34)c(F)c2n1 [Example 10, 4-(4-((1R,5S)-3,8-diazabicyclo[3.2.1]octan-3-yl)-8-fluoro-2-(2-((S)-1-methylpyrrolidin-2-yl)ethoxy)pyrido[4,3-d]pyrimidin-7-yl)naphthalen-2-ol] | – | 33.8 nM |
| CN1CCC[C@H]1COc1nc(N2C[C@H]3CC[C@@H](C2)N3)c2cnc(-c3cccc4c3CCC4)c(F)c2n1 [Example 23, 4-((1R,5S)-3,8-diazabicyclo[3.2.1]octan-3-yl)-7-(2,3-dihydro-1H-inden-4-yl)-8-fluoro-2-(((S)-1-methylpyrrolidin-2-yl)methoxy)pyrido[4,3-d]pyrimidine] | – | 807 nM |
| C#Cc1c(F)ccc2cccc(-c3ncc4c(N5C[C@H]6CC[C@@H](C5)N6)nc(OC[C@]56CCCN5[C@@H](COC(=O)N(C)C)CC6)nc4c3F)c12 [Example 439, ((3R,7aR)-7a-(((4-((1R,5S)-3,8-diazabicyclo[3.2.1]octan-3-yl)-7-(8-ethynyl-7-fluoronaphthalen-1-yl)-8-fluoropyrido[4,3-d]pyrimidin-2-yl)oxy)methyl)hexahydro-1H-pyrrolizin-3-yl)methyl dimethylcarbamate] | 0.4 nM | – |
| CSc1ccccc1-c1ncc2c(N3C[C@H]4CC[C@@H](C3)N4)nc(OCC34CCCN3CCC4)nc2c1F [Example 329, 4-((1R,5S)-3,8-diazabicyclo[3.2.1]octan-3-yl)-8-fluoro-7-(2-(methylthio)phenyl)-2-((tetrahydro-1H-pyrrolizin-7a(5H)-yl)methoxy)pyrido[4,3-d]pyrimidine] | 202 nM | – |
| Oc1ccc(CC(F)(F)F)c(-c2ncc3c(N4C[C@H]5CC[C@@H](C4)N5)nc(OC[C@@]45CCCN4C[C@H](F)C5)nc3c2F)c1 [Example 424, 3-(4-((1R,5S)-3,8-diazabicyclo[3.2.1]octan-3-yl)-8-fluoro-2-(((2R,7aS)-2-fluorohexahydro-1H-pyrrolizin-7a-yl)methoxy)pyrido[4,3-d]pyrimidin-7-yl)-4-(2,2,2-trifluoroethyl)phenol] | 5 nM | – |
| N#C[C@H]1CCN2CCC[C@@]12COc1nc(N2CC3CCC(C2)N3)c2cnc(-c3cccc4cccc(Cl)c34)c(F)c2n1 (stereo in doubt) [Example 379, 7a-(((4-((1R,5S)-3,8-diazabicyclo[3.2.1]octan-3-yl)-7-(8-chloronaphthalen-1-yl)-8-fluoropyrido[4,3-d]pyrimidin-2-yl)oxy)methyl)hexahydro-1H-pyrrolizine-1-carbonitrile] | 249 nM | – |
| Fc1ccc2cccc(-c3ncc4c(N5C[C@H]6CC[C@@H](C5)N6)nc(OCC56CCCN5CCC6)nc4c3F)c2c1F [Example 464, 4-((1R,5S)-3,8-diazabicyclo[3.2.1]octan-3-yl)-7-(7,8-difluoronaphthalen-1-yl)-8-fluoro-2-((hexahydro-1H-pyrrolizin-7a-yl)methoxy)pyrido[4,3-d]pyrimidine] | 0.007 nM | – |
| CN1CCCC1(CO)COc1nc(N2C[C@H]3CC[C@@H](C2)N3)c2cnc(-c3cccc4ccccc34)c(F)c2n1 (stereo partly drawn) [Example 323, (2-(((4-((1R,5S)-3,8-diazabicyclo[3.2.1]octan-3-yl)-8-fluoro-7-(naphthalen-1-yl)pyrido[4,3-d]pyrimidin-2-yl)oxy)methyl)-1-methylpyrrolidin-2-yl)methanol] | 1690 nM | – |
| N#Cc1ccccc1-c1ncc2c(N3CC4CCC(C3)N4)nc(OC[C@@]34CCCN3C[C@H](F)C4)nc2c1F (stereo in doubt) [Example 409, 2-(4-((1R,5S)-3,8-diazabicyclo[3.2.1]octan-3-yl)-8-fluoro-2-((2-fluorotetrahydro-1H-pyrrolizin-7a(5H)-yl)methoxy)pyrido[4,3-d]pyrimidin-7-yl)benzonitrile] | 2230 nM | – |
